Where a name gives a salt, the structure may show the parent alone.
Experiment: Tested for 50% inhibition of generation of Human Ha-ras polymerase chain reaction(PCR) products

Question: For `Cn1cc(NC(=O)c2cc(NC(=O)c3cc(NC(=O)c4cc5cc(N(CCCl)CCCl)ccc5n4C)cn3C)cn2C)cc1C(=O)NCCC(=N)N` [5-[Bis-(2-chloro-ethyl)-amino]-1-methyl-1H-indole-2-carboxylic acid (5-{5-[5-(2-carbamimidoyl-ethylcarbamoyl)-1-methyl-1H-pyrrol-3-ylcarbamoyl]-1-methyl-1H-pyrrol-3-ylcarbamoyl}-1-methyl-1H-pyrrol-3-yl)-amide; hydrochloride], which IC50 is on record?
Answer: 20 nM

Question: With `Cn1cc(NC(=O)c2cc(NC(=O)c3cc(NC(=O)c4cc5cc(N(CCCl)CCCl)ccc5[nH]4)cn3C)cn2C)cc1C(=O)NCCC(=N)N` [5-[Bis-(2-chloro-ethyl)-amino]-1H-indole-2-carboxylic acid (5-{5-[5-(2-carbamimidoyl-ethylcarbamoyl)-1-methyl-1H-pyrrol-3-ylcarbamoyl]-1-methyl-1H-pyrrol-3-ylcarbamoyl}-1-methyl-1H-pyrrol-3-yl)-amide; hydrochloride] as the compound, how does the IC50 read?
Answer: 20 nM

Question: With `Cn1cc(NC(=O)c2cc(NC(=O)c3cc(NC(=O)c4cc5cc(N(CCCl)CCCl)ccc5o4)cn3C)cn2C)cc1C(=O)NCCC(=N)N` [5-[Bis-(2-chloro-ethyl)-amino]-benzofuran-2-carboxylic acid (5-{5-[5-(2-carbamimidoyl-ethylcarbamoyl)-1-methyl-1H-pyrrol-3-ylcarbamoyl]-1-methyl-1H-pyrrol-3-ylcarbamoyl}-1-methyl-1H-pyrrol-3-yl)-amide; hydrochloride] as the compound, how does the IC50 read?
Answer: 15 nM

Question: Which IC50 does the source give for `Cn1cc(NC(=O)c2cc(NC(=O)c3cc(NC(=O)c4cc5cc(NC(=O)c6ccc(N(CCCl)CCCl)cc6)ccc5n4C)cn3C)cn2C)cc1C(=O)NCCC(=N)N` [5-{4-[Bis-(2-chloro-ethyl)-amino]-benzoylamino}-1-methyl-1H-indole-2-carboxylic acid (5-{5-[5-(2-carbamimidoyl-ethylcarbamoyl)-1-methyl-1H-pyrrol-3-ylcarbamoyl]-1-methyl-1H-pyrrol-3-ylcarbamoyl}-1-methyl-1H-pyrrol-3-yl)-amide; hydrochloride] here?
Answer: 15 nM

Question: With `Cn1cc(NC(=O)c2cc(NC(=O)c3cc(NC(=O)c4nc5ccc(NC(=O)c6ccc(N(CCCl)CCCl)cc6)cc5[nH]4)cn3C)cn2C)cc1C(=O)NCCC(=N)N` [5-{4-[Bis-(2-chloro-ethyl)-amino]-benzoylamino}-1H-benzoimidazole-2-carboxylic acid (5-{5-[5-(2-carbamimidoyl-ethylcarbamoyl)-1-methyl-1H-pyrrol-3-ylcarbamoyl]-1-methyl-1H-pyrrol-3-ylcarbamoyl}-1-methyl-1H-pyrrol-3-yl)-amide; hydrochloride] as the compound, how does the IC50 read?
Answer: 15 nM

Question: For `Cn1cc(NC(=O)c2cc(NC(=O)c3cc(NC(=O)c4cc5cc(NC(=O)c6ccc(N(CCCl)CCCl)cc6)ccc5[nH]4)cn3C)cn2C)cc1C(=O)NCCC(=N)N` [5-{4-[Bis-(2-chloro-ethyl)-amino]-benzoylamino}-1H-indole-2-carboxylic acid (5-{5-[5-(2-carbamimidoyl-ethylcarbamoyl)-1-methyl-1H-pyrrol-3-ylcarbamoyl]-1-methyl-1H-pyrrol-3-ylcarbamoyl}-1-methyl-1H-pyrrol-3-yl)-amide; hydrochloride], which IC50 is on record?
Answer: 15 nM

Question: Which IC50 does the source give for `Cn1cc(NC(=O)c2cc(NC(=O)c3cc(NC(=O)c4cc5cc(NC(=O)c6ccc(N(CCCl)CCCl)cc6)ccc5o4)cn3C)cn2C)cc1C(=O)NCCC(=N)N` [5-{4-[Bis-(2-chloro-ethyl)-amino]-benzoylamino}-benzofuran-2-carboxylic acid (5-{5-[5-(2-carbamimidoyl-ethylcarbamoyl)-1-methyl-1H-pyrrol-3-ylcarbamoyl]-1-methyl-1H-pyrrol-3-ylcarbamoyl}-1-methyl-1H-pyrrol-3-yl)-amide; hydrochloride] here?
Answer: 15 nM

— BindingDB's records for doi:10.1021/jm9911229 (University of Ferrara, 2000)
